Source: PubChem BioAssay (NCI)
Where “and” joins values, the source holds several entries; their conditions need not be identical. Equal entries are not always repeated.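 Cultured in 96-well plates, cells were exposed to test compound for 48 hours across five concentrations. GI50: concentration for 50% inhibition of growth. TGI: total growth inhibition.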

Experiments:
Assay in all cases: NCI tumour cell line growth inhibition, 48 h
HCC-2998 colon = system: HCC-2998 colon
SF-268 CNS = system: SF-268 CNS
ACHN renal = system: ACHN renal
SR leukemia = system: SR leukemia
RXF 393 renal = system: RXF 393 renal
NCI-H460 lung = system: NCI-H460 lung
HOP-62 NSCLC = system: HOP-62 NSCLC
CAKI-1 renal = system: CAKI-1 renal
A549 NSCLC = system: A549 NSCLC
SK-MEL-28 melanoma = system: SK-MEL-28 melanoma

COc1cc(NCc2ccc3oc(=O)c(-c4ccccc4)nc3c2)cc(OC)c1OC
TGI (HCC-2998 colon): > 10 µM
TGI (SF-268 CNS): > 10 µM
TGI (ACHN renal): > 10 µM
TGI (SR leukemia): > 10 µM
TGI (RXF 393 renal): > 10 µM
TGI (NCI-H460 lung): > 10 µM
TGI (HOP-62 NSCLC): > 10 µM
TGI (CAKI-1 renal): > 10 µM
TGI (A549 NSCLC): > 10 µM
TGI (SK-MEL-28 melanoma): > 10 µM

CN(C)CCSC1=Nc2ccc(Cl)cc2C(c2ccccc2Cl)=NC1
GI50 (HCC-2998 colon): 13.4 µM and > 100 µM
TGI (HCC-2998 colon): 30.3 µM and > 100 µM
GI50 (SF-268 CNS): 13.9 µM and 99.4 µM
TGI (SF-268 CNS): 28.2 µM and > 100 µM
GI50 (ACHN renal): 14 µM and > 100 µM
TGI (ACHN renal): 26.9 µM and > 100 µM
GI50 (SR leukemia): 6.68 µM and 42 µM
TGI (SR leukemia): > 100 µM
TGI (RXF 393 renal): 15.9 µM and > 100 µM
GI50 (NCI-H460 lung): 14.9 µM and 68.1 µM
TGI (NCI-H460 lung): 30.7 µM and > 100 µM
GI50 (HOP-62 NSCLC): 15.8 µM and > 100 µM
TGI (HOP-62 NSCLC): 32.1 µM and > 100 µM
GI50 (CAKI-1 renal): 15.1 µM and 79.5 µM
TGI (CAKI-1 renal): 31.5 µM and > 100 µM
GI50 (A549 NSCLC): 13.8 µM and 88.8 µM
TGI (A549 NSCLC): 31.7 µM and > 100 µM
GI50 (SK-MEL-28 melanoma): 19.4 µM and > 100 µM
TGI (SK-MEL-28 melanoma): 34.1 µM and > 100 µM

COc1cc2c(c(OC)c1OC)-c1ccc(OC)c(=O)cc1C(NC(=O)c1ccc(N=[N+]=[N-])cc1)CC2 (configuration not stated)
TGI (HCC-2998 colon): 0.0513 µM
TGI (SF-268 CNS): > 100 µM
TGI (ACHN renal): > 100 µM
TGI (SR leukemia): > 100 µM
TGI (RXF 393 renal): 0.061 µM
TGI (NCI-H460 lung): 0.0613 µM
TGI (HOP-62 NSCLC): > 95.1 µM
TGI (CAKI-1 renal): 0.243 µM
TGI (A549 NSCLC): > 100 µM
TGI (SK-MEL-28 melanoma): > 100 µM

CN(C(=O)c1ccc(C(F)(F)F)cc1)c1ccc(Oc2ccc3c(c2)cc(C(=O)N2CCN(Cc4ccc(OC(F)F)cc4)CC2)n3C)nc1
GI50 (HCC-2998 colon): > 100 µM
TGI (HCC-2998 colon): > 100 µM
GI50 (SF-268 CNS): > 100 µM
TGI (SF-268 CNS): > 100 µM
GI50 (ACHN renal): > 100 µM
TGI (ACHN renal): > 100 µM
GI50 (SR leukemia): < 0.01 µM
TGI (SR leukemia): > 100 µM
GI50 (RXF 393 renal): 49.2 µM
TGI (RXF 393 renal): > 100 µM
GI50 (NCI-H460 lung): 3.25 µM
TGI (NCI-H460 lung): > 100 µM
TGI (HOP-62 NSCLC): > 100 µM
GI50 (CAKI-1 renal): 2.27 µM
TGI (CAKI-1 renal): > 100 µM
GI50 (A549 NSCLC): 3.23 µM
TGI (A549 NSCLC): > 100 µM
GI50 (SK-MEL-28 melanoma): 63.2 µM
TGI (SK-MEL-28 melanoma): > 100 µM

Fc1cc2[nH]ncc2c2c3c(c(-c4cn[nH]c4)nc12)CCCC3
GI50 (HCC-2998 colon): 1.52 µM
TGI (HCC-2998 colon): 5.75 µM
GI50 (SF-268 CNS): 1.31 µM
TGI (SF-268 CNS): 4.01 µM
GI50 (ACHN renal): 0.327 µM
TGI (ACHN renal): 10.3 µM
GI50 (SR leukemia): 0.355 µM
TGI (SR leukemia): > 100 µM
GI50 (RXF 393 renal): 0.275 µM
TGI (RXF 393 renal): 1.27 µM
GI50 (NCI-H460 lung): 0.845 µM
TGI (NCI-H460 lung): 4.69 µM
GI50 (HOP-62 NSCLC): 1.6 µM
TGI (HOP-62 NSCLC): > 21 µM
GI50 (CAKI-1 renal): 0.398 µM
TGI (CAKI-1 renal): 7.08 µM
GI50 (A549 NSCLC): 0.844 µM
TGI (A549 NSCLC): > 100 µM
GI50 (SK-MEL-28 melanoma): 1.19 µM
TGI (SK-MEL-28 melanoma): 3.88 µM

Cc1cc(I)cc(CN(C)CCCN2CCCCC2)c1O
GI50 (HCC-2998 colon): 14 µM
TGI (HCC-2998 colon): 27.2 µM
GI50 (SF-268 CNS): 13.1 µM
TGI (SF-268 CNS): 27.5 µM
GI50 (ACHN renal): 17.3 µM
TGI (ACHN renal): 37.3 µM
TGI (SR leukemia): 3.57 µM
GI50 (RXF 393 renal): 11.7 µM
TGI (RXF 393 renal): 26.6 µM
GI50 (NCI-H460 lung): 12.5 µM
TGI (NCI-H460 lung): 26.2 µM
GI50 (HOP-62 NSCLC): 13.7 µM
TGI (HOP-62 NSCLC): 27 µM
GI50 (CAKI-1 renal): 17 µM
TGI (CAKI-1 renal): 35.3 µM
GI50 (A549 NSCLC): 16.8 µM
TGI (A549 NSCLC): 35.7 µM
GI50 (SK-MEL-28 melanoma): 15.9 µM
TGI (SK-MEL-28 melanoma): 31.7 µM

CN(C)c1nc(=Nc2ccc(N=c3nc(N(C)C)ss3)cc2)ss1
TGI (HCC-2998 colon): > 100 µM
TGI (SF-268 CNS): 99.2 µM
TGI (ACHN renal): > 100 µM
TGI (SR leukemia): 64.9 µM
TGI (RXF 393 renal): 41.4 µM
TGI (NCI-H460 lung): > 100 µM
TGI (HOP-62 NSCLC): > 100 µM
TGI (CAKI-1 renal): > 59.5 µM
TGI (A549 NSCLC): > 100 µM
TGI (SK-MEL-28 melanoma): 33.6 µM
